In US20250276983A1, “COMPOUNDS AND METHODS FOR MODULATING HER2” (IAMBIC THERAPEUTICS, INC., priority 2022, published 2025):
Read-outs that look alike come from different tables or passages of the source.

Assays:
Assay type in all cases: cell-based
BaF3_HER2YVMA cells = assay: Cell growth inhibition assay, BaF3_HER2YVMA; conditions: BaF3_HER2YVMA cells, 3 days treatment, CellTiterGlo 2.0, read-out: HER2-YVMA IC50 (nM), cell growth inhibition
BaF3_EGFRWT cells = assay: Cell growth inhibition assay, BaF3_EGFRWT; conditions: 80 ng/mL recombinant human EGF, 3 days treatment, CellTiterGlo 2.0, read-out: EGFR WT IC50 (nM), cell growth inhibition
BaF3_HER2WT cells = assay: Cell growth inhibition assay, BaF3_HER2WT; conditions: 72 h, 3 days treatment, CellTiterGlo 2.0, read-out: HER2 WT IC50 (nM), cell growth inhibition

Row | SMILES | IC50 (BaF3_HER2YVMA cells; 72 h) [nM] | IC50 (BaF3_EGFRWT cells; 72 h) [nM] | IC50 (BaF3_HER2WT cells) [nM] | IC50 (BaF3_EGFRWT cells) [nM] | IC50 (BaF3_HER2YVMA cells) [nM]
1 | Cc1cc(Nc2ncnn3ccc(C4(F)CCN(C(=O)/C=C/CN(C)C)CC4)c23)ccc1Oc1ccn2ncnc2c1 [Example 175, (E)-1-(4-(4-((4-([1,2,4]triazolo[1,5-a]pyridin-7-yloxy)-3-methylphenyl)amino)pyrrolo[2,1-f][1,2,4]triazin-5-yl)-4-fluoropiperidin-1-yl)-4-(dimethylamino)but-2-en-1-one] | 1500 to 5000 | 1500 to 5000 | 1500 to 5000 | – | –
2 | Cc1cc(Nc2ncnn3ccc(C4CC5CCC(C4)N5C(=O)/C=C/CN(C)C)c23)ccc1Oc1ccn2ncnc2c1 (single isomer, unassigned) [Examples 122 and 123, first eluting isomer, (E)-1-(-3-(4-((4-([1,2,4]triazolo[1,5-a]pyridin-7-yloxy)-3-methylphenyl)amino)pyrrolo[2,1-f][1,2,4]triazin-5-yl)-8-azabicyclo[3.2.1]octan-8-yl)-4-(dimethylamino)but-2-en-1-one] | < 200 | – | < 200 | 500 to 1500 | –
3 | Cc1cc(Nc2ncnn3ccc(N4CCN(C(=O)C(F)Cl)CC(F)(F)C4)c23)ccc1Oc1ccn2ncnc2c1 (stereo not drawn) [Example 63, 1-(4-(4-((4-([1,2,4]triazolo[1,5-a]pyridin-7-yloxy)-3-methylphenyl)amino)pyrrolo[2,1-f][1,2,4]triazin-5-yl)-6,6-difluoro-1,4-diazepan-1-yl)-2-chloro-2-fluoroethan-1-one] | 500 to 1500 | 1500 to 5000 | 500 to 1500 | – | –
4 | Cc1cc(Nc2ncnn3ccc(C4CCN(C(=O)/C=C/[C@H]5CCCN5C)CC4)c23)ccc1Oc1ccn2ncnc2c1 [Example 25, (R,E)-1-(4-(4-((4-([1,2,4]triazolo[1,5-a]pyridin-7-yloxy)-3-methylphenyl)amino)pyrrolo[2,1-][1,2,4]triazin-5-yl)piperidin-1-yl)-3-(1-methylpyrrolidin-2-yl)prop-2-en-1-one] | < 200 | 1500 to 5000 | < 200 | – | –
5 | Cc1cc(Nc2ncnn3ccc(C4CN(C(=O)/C=C/CN5CCC(F)CC5)C4)c23)ccc1Oc1ccn2ncnc2c1 [Example 62, (E)-1-(3-(4-((4-([1,2,4]triazolo[1,5-a]pyridin-7-yloxy)-3-methylphenyl)amino)pyrrolo[2,1-f][1,2,4]triazin-5-yl)azetidin-1-yl)-4-(4-fluoropiperidin-1-yl)but-2-en-1-one] | < 200 | 1500 to 5000 | < 200 | – | –
6 | Cc1cc(Nc2ncnn3ccc(N4CCCN(C(=O)/C=C/CN5CCOCC5)CC4)c23)ccc1Oc1ccn2ncnc2c1 [Example 80, (E)-1-(4-(4-((4-([1,2,4]triazolo[1,5-a]pyridin-7-yloxy)-3-methylphenyl)amino)pyrrolo[2,1-f][1,2,4]triazin-5-yl)-1,4-diazepan-1-yl)-4-morpholinobut-2-en-1-one] | 1500 to 5000 | 1500 to 5000 | < 200 | – | –
7 | Cc1cc(Nc2ncnn3ccc(C4CCN(C(=O)[C@H](F)Cl)CC4)c23)ccc1Oc1ccn2ncnc2c1 (single isomer, unassigned) [Examples 173 and 174, first eluting isomer] | 1500 to 5000 | 1500 to 5000 | 200 to 500 | – | –
8 | Cc1cc(Nc2ncnn3ccc(C4CCN(C(=O)C5CC(=O)N5)CC4)c23)ccc1Oc1ccn2ncnc2c1 (stereo not drawn) [Example 36, 4-(4-(4-((4-([1,2,4]triazolo[1,5-a]pyridin-7-yloxy)-3-methylphenyl)amino)pyrrolo[2,1-f][1,2,4]triazin-5-yl)piperidine-1-carbonyl)azetidin-2-one acetate] | 1500 to 5000 | 1500 to 5000 | 1500 to 5000 | – | –
9 | Cc1cc(Nc2ncnn3ccc(C4CCCN(C(=O)/C=C/CN(C)C)CC4)c23)ccc1Oc1ccn2ncnc2c1 (single isomer, unassigned) [Examples 109 and 110, second eluting isomer, (E)-1-(4-(4-((4-([1,2,4]triazolo[1,5-a]pyridin-7-yloxy)-3-methylphenyl)amino)pyrrolo[2,1-f][1,2,4]triazin-5-yl)azepan-1-yl)-4-(dimethylamino)but-2-en-1-one] | – | – | – | 1500 to 5000 | –
10 | COC1CN(C/C=C/C(=O)N2CC(c3ccn4ncnc(Nc5ccc(Oc6ccn7ncnc7c6)c(C)c5)c34)C2)C1 [Example 39, (E)-1-(3-(4-((4-([1,2,4]triazolo[1,5-a]pyridin-7-yloxy)-3-methylphenyl)amino)pyrrolo[2,1-f][1,2,4]triazin-5-yl)azetidin-1-yl)-4-(3-methoxyazetidin-1-yl)but-2-en-1-one] | – | 1500 to 5000 | < 200 | – | –

More lines, now with the values ahead:

Row | IC50 (BaF3_HER2YVMA cells; 72 h) [nM] | IC50 (BaF3_EGFRWT cells; 72 h) [nM] | IC50 (BaF3_HER2WT cells) [nM] | IC50 (BaF3_EGFRWT cells) [nM] | IC50 (BaF3_HER2YVMA cells) [nM] | SMILES
11 | < 200 | 1500 to 5000 | < 200 | – | – | Cc1cc(Nc2ncnn3ccc(N4CCCC(N(C)C(=O)/C=C/CN(C)C)C4)c23)ccc1Oc1ccn2ncnc2c1 (stereo not drawn) [Example 68, (E)-N-(1-(4-((4-([1,2,4]triazolo[1,5-a]pyridin-7-yloxy)-3-methylphenyl)amino)pyrrolo[2,1-f][1,2,4]triazin-5-yl)piperidin-3-yl)-4-(dimethylamino)-N-methylbut-2-enamide]
12 | 500 to 1500 | 1500 to 5000 | < 200 | – | – | C=CC(=O)NC1CCCN(c2ccn3ncnc(Nc4ccc(Oc5ccn6ncnc6c5)c(C)c4)c23)C1 (stereo not drawn) [Example 76, N-(1-(4-((4-([1,2,4]triazolo[1,5-a]pyridin-7-yloxy)-3-methylphenyl)amino)pyrrolo[2,1-f][1,2,4]triazin-5-yl)piperidin-3-yl)acrylamide]
13 | < 200 | 1500 to 5000 | < 200 | – | – | Cc1cc(Nc2ncnn3ccc(C4CCN(C(=O)/C=C/CO)CC4)c23)ccc1Oc1ccn2ncnc2c1 [Example 154, (E)-1-(4-(4-((4-([1,2,4]triazolo[1,5-a]pyridin-7-yloxy)-3-methylphenyl)amino)pyrrolo[2,1-f][1,2,4]triazin-5-yl)piperidin-1-yl)-4-hydroxybut-2-en-1-one]
14 | < 200 | 1500 to 5000 | < 200 | – | – | Cc1cc(Nc2ncnn3ccc(C4CN(C(=O)/C=C/C5CCCN5C)C4)c23)ccc1Oc1ccn2ncnc2c1 (stereo not drawn) [Example 66, (E)-1-(3-(4-((4-([1,2,4]triazolo[1,5-a]pyridin-7-yloxy)-3-methylphenyl)amino)pyrrolo[2,1-f][1,2,4]triazin-5-yl)azetidin-1-yl)-3-(1-methylpyrrolidin-2-yl)prop-2-en-1-one]
15 | – | 1500 to 5000 | – | – | – | Cc1cc(Nc2ncnn3ccc(C4CCN(C(=O)/C=C/CN(C)C)CC4)c23)ccc1Oc1ccn2ncnc2c1 [Example 21, (E)-1-(4-(4-((4-([1,2,4]triazolo[1,5-a]pyridin-7-yloxy)-3-methylphenyl)amino)pyrrolo[2,1-f][1,2,4]triazin-5-yl)piperidin-1-yl)-4-(dimethylamino)but-2-en-1-one]
16 | – | – | – | 1500 to 5000 | < 200 | C=CC(=O)N1CCCC(c2ccn3ncnc(Nc4ccc(Oc5ccn6ncnc6c5)c(C)c4)c23)CC1 (single isomer, unassigned) [Examples 111 and 112, second eluting isomer, 1-(4-(4-((4-([1,2,4]triazolo[1,5-a]pyridin-7-yloxy)-3-methylphenyl)amino)pyrrolo-[2,1-f][1,2,4]triazin-5-yl)azepan-1-yl)prop-2-en-1-one]
